Measurements published in publication PMC11480411, “Mucosal sugars delineate pyrazine vs pyrazinone autoinducer signaling in Klebsiella oxytoca” (Nature Communications, 2024).
“And” between values parts separate entries of the source, which are not always exact repeats. Identical values can stand only once.

Assays:
[1] = molecular target: T1, histamine receptor H4 (HRH4) (Homo sapiens, UniProt Q9H3N8); experiment: PRESTO-Tango GPCR screen and dose-response; format: cell-based; details: for GPCR activation (heatmap value): HRH4, 100 µM; for HRH4 dose-response raw reporter signal (Fig. 5b source data): replicate wells; for EC50: PRESTO-Tango dose-response, n = 3, read-out: EC50 (HRH4 activation)
T1 construct: expressed in transfected cells; host or cells: HTLA cells (HEK293 line stably expressing β-arrestin-TEV and tTA-Luciferase)
Method in brief: (§1)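 Each receptor was expressed from a Tango plasmid in HTLA cells, which stably carry β-arrestin-TEV and a tTA-driven luciferase reporter. Single-point screening used 100 μM final compound for 20 h, and the signal was normalised to PBS control. Concentration-response testing spanned 10^−4 to 10^−15 M.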

HRH3 = molecular target: T2, HRH3 (Homo sapiens, UniProt Q9Y5N1); experiment: PRESTO-Tango GPCR screen and dose-response; format: cell-based; details: for GPCR activation (heatmap value): HRH3, 100 µM; for HRH3 dose-response raw reporter signal (Fig. 5b source data): replicate wells
T2 construct: expressed in transfected cells; host or cells: HTLA cells (HEK293 line stably expressing β-arrestin-TEV and tTA-Luciferase)
Method in brief: as §1

∆pyr K. oxytoca = experiment: RNA-seq of compound-supplemented ∆pyr K. oxytoca; format: cell-based, Klebsiella oxytoca ATCC 8724; details: 10 µM
Method: A ∆pyr K. oxytoca glycerol stock was streaked onto an LB-Agar plate supplemented with spectinomycin (50 µg/mL) and incubated aerobically at 30°C for 24 h in a stationary incubator. Single colonies were grown for 24 h aerobically in 5 mL of M9 minimal medium supplemented with 5 g/L casamino acids and 0.4% D-galactose at 30 °C and 250 rpm. Each ∆pyr K. oxytoca overnight culture was diluted 1:1000 into fresh medium (5 mL) and incubated aerobically at 30 °C and 250 rpm to mid-exponential growth (OD600 = 0.8). These conditions abrogated both detectable pyrazine and pyrazinone production. At this point, 10 µM of compound in DMSO, were added to the cultures; an equal volume of DMSO was added to cultures without compound as a solvent vehicle control. The cultures were incubated under aerobic conditions with the compounds for one hour at 30 °C and at 250 rpm. After incubation, the cultures were centrifuged, the supernatants were decanted, and the cell pellets were quickly resuspended in 5 mL of Bacterial RNAProtect (Qiagen). The samples were centrifuged again, and the pellets were frozen on dry ice and stored at −80 °C until RNA extraction. The processed cell pellets were thawed on ice and resuspended in 200 µL of lysis buffer (10 mM Tris, 1 mM EDTA, 5 mg/mL lysozyme, 12.5 µg/mL proteinase K [pH 8.0]) and incubated at room temperature for 10 min. The RNA was extracted via the Qiagen RNeasy Mini kit, treated with TURBO DNase in a total volume of 100 µL at room temperature for 30 min, and extracted again using an RNeasy Mini kit. RNA-seq analysis was conducted by the Yale Center for Genome Analysis. Sequences were aligned to the K. oxytoca ATCC 8724 genome (NC_016612.1). Differential expression analysis was performed through DESeq2 and pathway enrichment analysis was performed through the Funage-Pro web-based platform.

T1 sequence (Q9H3N8 whole entry): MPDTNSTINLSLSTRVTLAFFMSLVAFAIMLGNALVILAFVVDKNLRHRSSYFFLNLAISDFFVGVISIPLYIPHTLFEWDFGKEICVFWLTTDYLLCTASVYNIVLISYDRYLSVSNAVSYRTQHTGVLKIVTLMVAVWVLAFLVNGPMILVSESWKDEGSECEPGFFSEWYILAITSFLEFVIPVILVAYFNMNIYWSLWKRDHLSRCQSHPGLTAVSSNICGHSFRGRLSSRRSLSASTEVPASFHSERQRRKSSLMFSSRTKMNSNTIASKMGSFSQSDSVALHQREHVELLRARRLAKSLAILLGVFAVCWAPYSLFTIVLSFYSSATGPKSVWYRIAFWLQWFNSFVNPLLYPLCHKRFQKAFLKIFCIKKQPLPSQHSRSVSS
T2 sequence (Q9Y5N1 whole entry): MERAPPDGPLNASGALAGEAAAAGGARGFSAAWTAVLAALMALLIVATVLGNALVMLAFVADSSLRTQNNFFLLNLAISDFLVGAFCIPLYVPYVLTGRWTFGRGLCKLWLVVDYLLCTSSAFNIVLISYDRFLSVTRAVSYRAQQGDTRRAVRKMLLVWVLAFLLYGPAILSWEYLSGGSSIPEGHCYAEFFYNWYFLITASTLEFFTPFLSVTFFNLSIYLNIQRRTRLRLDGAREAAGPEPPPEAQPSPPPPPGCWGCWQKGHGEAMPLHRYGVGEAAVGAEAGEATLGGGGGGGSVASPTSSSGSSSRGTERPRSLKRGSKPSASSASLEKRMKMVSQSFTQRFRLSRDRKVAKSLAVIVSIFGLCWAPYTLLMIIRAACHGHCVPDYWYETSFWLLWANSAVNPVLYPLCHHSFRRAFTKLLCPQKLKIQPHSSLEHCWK

SMILES	GPCR activation (heatmap value) [1]	HRH4 dose-response raw reporter signal (Fig. 5b source data) ([1]; Log(10)Conc (M) -5)	HRH4 dose-response raw reporter signal (Fig. 5b source data) ([1]; Log(10)Conc (M) -6)	HRH4 dose-response raw reporter signal (Fig. 5b source data) ([1]; Log(10)Conc (M) -7)	HRH4 dose-response raw reporter signal (Fig. 5b source data) ([1]; Log(10)Conc (M) -8)	HRH4 dose-response raw reporter signal (Fig. 5b source data) ([1]; Log(10)Conc (M) -9)	HRH4 dose-response raw reporter signal (Fig. 5b source data) ([1]; Log(10)Conc (M) -10)	HRH4 dose-response raw reporter signal (Fig. 5b source data) ([1]; Log(10)Conc (M) -11)	HRH4 dose-response raw reporter signal (Fig. 5b source data) ([1]; Log(10)Conc (M) -12)	HRH4 dose-response raw reporter signal (Fig. 5b source data) ([1]; Log(10)Conc (M) -13)	HRH4 dose-response raw reporter signal (Fig. 5b source data) ([1]; Log(10)Conc (M) -14)	HRH4 dose-response raw reporter signal (Fig. 5b source data) ([1]; Log(10)Conc (M) -15)	EC50 [1]	GPCR activation (heatmap value) (HRH3)	HRH3 dose-response raw reporter signal (Fig. 5b source data) (HRH3; Log(10)Conc (M) -4)	HRH3 dose-response raw reporter signal (Fig. 5b source data) (HRH3; Log(10)Conc (M) -5)	HRH3 dose-response raw reporter signal (Fig. 5b source data) (HRH3; Log(10)Conc (M) -6)	HRH3 dose-response raw reporter signal (Fig. 5b source data) (HRH3; Log(10)Conc (M) -7)	HRH3 dose-response raw reporter signal (Fig. 5b source data) (HRH3; Log(10)Conc (M) -8)	HRH3 dose-response raw reporter signal (Fig. 5b source data) (HRH3; Log(10)Conc (M) -9)	other results
CC(C)Cc1ncc(CCCCNC(=N)N)[nH]c1=O [3-Homo]	2.481	18151 and 17815	6385 and 6598	1365 and 1430	793 and 758	522 and 575	463 and 475	357 and 469	542 and 504	404 and 363	351 and 360	333 and 448	2.7 µM	-0.5013	262 and 192 and 404	245 and 283 and 383	192 and 292 and 463	286 and 312 and 310	174 and 312 and 371	227 and 248 and 307	HRH3 dose-response raw reporter signal (Fig. 5b source data) (HRH3; Log(10)Conc (M) -10): 124 and 254 and 251; HRH3 dose-response raw reporter signal (Fig. 5b source data) (HRH3; Log(10)Conc (M) -11): 177 and 189 and 218; HRH3 dose-response raw reporter signal (Fig. 5b source data) (HRH3; Log(10)Conc (M) -12): 112 and 153 and 198; HRH3 dose-response raw reporter signal (Fig. 5b source data) (HRH3; Log(10)Conc (M) -13): 130 and 206 and 248; HRH3 dose-response raw reporter signal (Fig. 5b source data) (HRH3; Log(10)Conc (M) -14): 97 and 162 and 233; HRH3 dose-response raw reporter signal (Fig. 5b source data) (HRH3; Log(10)Conc (M) -15): 150 and 124 (2×)
CC(C)Cc1ncc(CCCNC(=N)N)[nH]c1=O [compound 3]	2.217	8773 and 9531	1621 and 2108	649 and 769	454 and 619	531 and 542	578 and 380	348 and 430	348 and 454	286 and 351	262 and 481	292 and 283	12.5 µM	-0.154	248 and 233 and 159	121 and 136 and 127	224 and 147 and 106	127 and 100 and 124	165 and 200 and 159	144 and 133 and 142	number of differentially regulated genes (∆pyr K. oxytoca; one hour, vs DMSO, Padj < 0.05, abs(log2FC) > 1): 561 genes; effect on enterobactin BGC transcription (∆pyr K. oxytoca; vs DMSO control, RNA-seq): significantly enhanced transcription of the enterobactin BGC; KEGG pathway enrichment neglogP: ABC Transporters, upregulated (∆pyr K. oxytoca; Funage-Pro, 3 upreg): 5.638; KEGG pathway enrichment neglogP: Biosynthesis of siderophore group nonribosomal peptides, upregulated (∆pyr K. oxytoca; Funage-Pro, 3 upreg): 9.097; effect on yersiniabactin BGC transcription (∆pyr K. oxytoca; RNA-seq, pyrazinone 3 compared with pyrazine 7): prominently upregulated the yersiniabactin BGC; HRH3 dose-response raw reporter signal (Fig. 5b source data) (HRH3; Log(10)Conc (M) -10): 130 and 100 and 103; HRH3 dose-response raw reporter signal (Fig. 5b source data) (HRH3; Log(10)Conc (M) -11): 156 and 177 and 165; HRH3 dose-response raw reporter signal (Fig. 5b source data) (HRH3; Log(10)Conc (M) -12): 103 and 171 and 100; HRH3 dose-response raw reporter signal (Fig. 5b source data) (HRH3; Log(10)Conc (M) -13): 124 and 189 and 112; HRH3 dose-response raw reporter signal (Fig. 5b source data) (HRH3; Log(10)Conc (M) -14): 115 and 200 and 124; HRH3 dose-response raw reporter signal (Fig. 5b source data) (HRH3; Log(10)Conc (M) -15): 106 and 271 and 127
